Marks after values point to notes of the source that are not given here.

The values below come from patent US20030180260A1, “Immunotherapy or treating bacterial or viral infection at mucosal surfaces with probiotics, and compositions therefor” (priority 2000, published 2003).

In one test the test system is IL-4. In words: IL-4 production by OVA-stimulated spleen lymphocytes of mice fed L. acidophilus (ELISA). Format: in vivo, C57/BI6 mice. Conditions: fed intragastrically, OVA-sensitised; spleen lymphocytes stimulated with OVA 5 μg/mL for 4 days; FIG. 1A. The protocol: (§1) To determine whether probiotic bacteria down-regulate Th2 and up-regulate Th1 cytokine response, C57/BI6 mice were fed intragastrically using a feeding needle, various numbers of Lactobacillus acidophilus (obtained from University of New South Wales, School of Microbiology and Immunology Culture Collection, Sydney, Australia) on consecutive days for 2 weeks after which they were sensitised with 8 μg of ovalbumin (OVA) and aluminium hydroxide in 0.2 mL phosphate-buffered saline administered by peritoneal injection. The mice were further fed ten times with L. acidophilus every two days for two weeks before they were sacrificed. Lymphocytes were isolated by teasing spleens through a sieve, washed with PBS, and resuspended at 10×10^6 One mL aliquots of the cell suspension were dispensed into wells of a 24-well flat-bottomed microtitre plate and stimulated with OVA (5 μg/mL). After incubation for 4 days the supernatants were collected and assayed for IL-4 and IFN-γ production by standard ELISA techniques using IL-4 or IFN-γ monoclonal antibody pairs. Briefly, wells of a 24-well microtitre plate were coated with a capture anti-IL-4 antibody. […] The colour development was read at 450/620 nm in an ELISA plate reader. The level of IL-4 in unknown samples was quantitated by interpolation using a standard curve. […]
Background: In an ELISA, binding on a coated surface is turned into a signal by an enzyme label.

The next test concerns IFN-γ. Nature of the test: IFN-γ production by OVA-stimulated spleen lymphocytes of mice fed L. acidophilus (ELISA). Format: in vivo, C57/BI6 mice. The settings on record: fed intragastrically, OVA-sensitised; spleen lymphocytes stimulated with OVA 5 μg/mL for 4 days; FIG. 1B. The protocol: as §1
A further test has as its system Candida albicans. In words: Resistance to oral C. albicans infection following feeding with probiotic bacteria. Format: in vivo, DBA/2 mice. Conditions: 5×10^9 intragastrically every 2 days for 2 weeks. The protocol:
DBA/2 mice H2d male mice (n=3-5 per group) were fed intragastrically every 2 days for 2 weeks with 5×10^9 L. acidophilus in 0.2 mL PBS. One day after the last feed mice were challenged with 10^8 Candida albicans blastospores by swabbing the oral cavity using a fine-tip sterile swab. At various days after infection the number of C. albicans in the oral mucosa was determined. The oral cavity (cheek, tongue and soft palate) was completely swabbed using a fine-tipped cotton swab. The cotton swab was placed in 1 mL PBS and the yeast cells were resuspended by mixing in a vortex mixer before culture of serial 10-fold dilutions on Sabourand dextrose agar supplemented with chloramphenicol at 37° C. The results were expressed as CFU/mL (FIG. 5)

For the next test, the system named is H influenzae. In words: Clearance of non-typable H influenzae from the lungs of rats fed L acidophilus. Format: in vivo, DA rats. The protocol:
DA rats (200-250 gm, 8-10 weeks old, Animal Resource Centre, Perth, Wash.) were fed intragastrically L acidophilus in 0.75 mL PBS (2.5×10^10 per rat) or PBS alone every 2 days for 7 days at which time the rats were immuniised with formalin-killed H influenzae ([…]) administered intralumenally (see groups below). Rats continued to be fed every 2 days for 2 weeks and then boosted with 50 μL of formalin killed H influenzae (5×10^8 per rat) administered by the intratracheal route. After further feeding with L acidophilus for a further 7 days, the rats were challenged with 50 μL of live 5×10^8 H influenzae in the lung.
Immunisation Groups (5 Rats/Group):
2H influenzae (intralumenal)+H influenzae (intra-tracheal boost)
3 PBS (intralumenal)+L. acidophilus fed every 2 days
4H influenzae (intralumenal)+H influenzae (intratracheal boost)+L. acidophilus fed every 2 days
After 4 hrs post challenge, the rats were sacrificed and the levels of colonisation in the lung was examined in bronchial lavage (BAL) and lung homogenate (LH). The level of clearance was determined by a plating serial 10-fold dilutions of the lavage fluid or lung homogenate onto chocolate agar plates. The results were expressed as number of colony forming units (CFU.

The test system of the next test is Salmonella typhimurium. In words: Translocation of Salmonella typhimurium to spleen in mice fed L acidophilus (VRI 011) and given killed Salmonella vaccine. Type of test: in vivo, BALB/c mice. From the text:
Female BALB/c mice 6-8 weeks old were obtained from the Animal Resource Centre, Perth, Wash. Lactobacillus acidophilus strain (VRI 011) and the pathogen Salmonella tyhimurium were obtained from the School of Microbiology and Immunology Type Culture Collection, University of New South Wales.
Mice were given 5 doses of L acidophilus (VRI 011) (1×10^8 cfu per dose) or PBS over a 2 week period after which time mice were immunised intragastrically with a killed oral Salmonella vaccine. Two weeks after immunisation, the mice were sacrificed and the spleens collected for enumeration of L acidophilus and S tyhimurium.

Test [1] deals with H. pylori (Sydney strain 1). In words: Clearance of pre-established H. pylori stomach infection in mice dosed with L. acidophilus. Format: in vivo, C57BL/6 mice. The protocol: Two groups of 5 female C57BL/6 mice were infected with H. pylon (Sydney strain 1) by administration of approx. 10^9 live H. pylori on three consecutive days (days 1, 2 and 3) by gavage. On days 28, 30, 32, 35, 37 and 39 mice were dosed by gavage with live L. acidophilus (5×10^9 in 0.2 mL water) or water (control group).
Twenty-one days later ([…]) mice were killed by pentobarbitone overdose (administered intra-peritoneally) and their stomachs removed. The stomach was dissected into two equal halves and one half was placed in 1 mL of deionised water and homogenised. Serial 10-fold dilutions of stomach homogenate were plated out on chocolate agar plates containing fungizone, vancomycin, bacitracin and nalidixic acid. After incubation for 3 days at 37° C. under microaerophilic conditions, the colonies were counted and the total number of live H. pylori in the original stomach homogenate determined.

The next test concerns Helicobacter pylori. In words: Metronidazole therapy of H. pylori infection in mice pre-treated with probiotic. Format: in vivo. The settings on record: for % eradication: compared with saline-treated control group. The protocol: H. pylori infected mice (5 per group) were treated with Lactobacillus acidophilus (1×10^9 per animal) by oral feeding 3 times a week for 2 weeks prior to treatment with Metronidazole (0.08 mg/animal) for 1 week.

Consider “Lactobacillus acidophilus [L. acidophilus]”, for which the IL-4 production result in the test with IL-4 is on record as “suppression of IL-4 production in dose-dependent manner”. Moreover, the “production of IFN-γ” value with IFN-γ is given as “enhanced”. The “resistance to C. albicans infection (oral mucosa CFU) compared to mice fed PBS” value with Candida albicans (all time points, FIG. 5) was “more resistant to infection at all time points”. Further, the “clearance of yeasts from oral cavity by day 6” value in the test on Candida albicans (day 6) is listed as “almost completely cleared”. The “BAL H influenzae” value in the test on H influenzae (bronchial lavage, 4 hrs post challenge with 5×10^8 live H influenzae) was 0.7 ± 0.3 CFU/mL × 10^8. In addition, the “LH H influenzae” value with H influenzae (lung homogenate, 4 hrs post challenge with 5×10^8 live H influenzae) turned out to be 12.5 ± 5.7 CFU/mL × 10^6. Also, the “resistance to H influenzae infection in the lungs” value with H influenzae (rats fed L acidophilus and immunised with killed H influenzae) is “more resistance to infection”. Moreover, in the test with H influenzae (repeated oral feeding compared with a single bolus), the “resistance to infection, repeated oral doses versus single bolus” value is listed as “more resistant to infection than rats given a single bolus”. Further, the “protection against translocation of S typhimurium compared with mice fed PBS” value in the test with Salmonella typhimurium (fed before or simultaneously with killed oral S typhimurium vaccine, live oral challenge) is “better protection against translocation”. Besides, in the test on Salmonella typhimurium (feeding in addition to killed oral vaccine), the “effect of feeding on the vaccine-induced decrease of translocation” value is “further enhanced”. The “Number of H. pylori in stomach homogenate” value in test [1] (5×10^9 by gavage on days 28-39 after infection, killed day 50) was 105 ± 14 10^4 CFU. The “level of H. pylori infection of the stomach versus control mice” value in test [1] (therapeutic dosing on pre-established infection) is given as “lower level of H. pylori infection”. For the same substance, in the test on Helicobacter pylori (L acidophilus 1×10^9 orally 3 times a week for 2 weeks, Metronidazole 0.08 mg/animal for 1 week), the H. pylori colonisation is 10.5 ± 1.4 ×10^5 CFU/animal. Besides, the “% eradication” value in the test with Helicobacter pylori is recorded as 58^a %; in the test with Helicobacter pylori (listed as probiotic), 58%.
